Legend:
[1] = target: T1, GABAA2 receptors (α2, β3, γ2 receptor subunits transfected into Sf9 cells) (Homo sapiens, UniProt P18507+P47869); assay: GABAA2 Binding Method ([3H]-Flunitrazepam displacement); settings: [3H]-Flunitrazepam ~2 nM, α2β3γ2 Sf9 membranes, 1 hr at 4° C.
T1 construct: host or cells: Sf9 cells (membranes)
In short: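 Displacement of [3H]-flunitrazepam (~2 nM in assay) from recombinant human α2β3γ2 receptors in Sf9 membranes; 1 h incubation at 4 °C, harvest by filtration. Values reported as percent of control, IC50 and Ki.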

GABAA receptor α1β2γ2 = target: T2, GABAA receptor α1β2γ2 (Homo sapiens, UniProt P14867+P18507); assay: Two-electrode voltage-clamp potentiation of GABA EC10 current in Xenopus oocytes, GABAA1; type: cell-based; settings: percentage potentiation of GABA EC10 current divided by that of diazepam
T2 construct: expressed in transfected cells; host or cells: Xenopus laevis oocytes injected with cRNA
In short: (§1)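 Human GABAA receptors expressed in Xenopus oocytes by cRNA injection (α:β:γ molar ratio ~1:1:10 for α1β2γ2, 1:1:1 for α2β3γ2), recorded 2-10 days later by two-electrode voltage clamp at −60 mV in ND-96, pH 7.5. Modulator preapplied 30 s before GABA at per-oocyte EC10. Peak-current percent potentiation over GABA alone, normalised to diazepam.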

GABAA receptor α2β3γ2 = target: T3, GABAA receptor α2β3γ2 (Homo sapiens, UniProt P18507+P47869); assay: Two-electrode voltage-clamp potentiation of GABA EC10 current in Xenopus oocytes, GABAA2; type: cell-based; settings: percentage potentiation of GABA EC10 current divided by that of diazepam
T3 construct: expressed in transfected cells; host or cells: Xenopus laevis oocytes injected with cRNA
In short: as §1

T3 sequence (P47869 29-451): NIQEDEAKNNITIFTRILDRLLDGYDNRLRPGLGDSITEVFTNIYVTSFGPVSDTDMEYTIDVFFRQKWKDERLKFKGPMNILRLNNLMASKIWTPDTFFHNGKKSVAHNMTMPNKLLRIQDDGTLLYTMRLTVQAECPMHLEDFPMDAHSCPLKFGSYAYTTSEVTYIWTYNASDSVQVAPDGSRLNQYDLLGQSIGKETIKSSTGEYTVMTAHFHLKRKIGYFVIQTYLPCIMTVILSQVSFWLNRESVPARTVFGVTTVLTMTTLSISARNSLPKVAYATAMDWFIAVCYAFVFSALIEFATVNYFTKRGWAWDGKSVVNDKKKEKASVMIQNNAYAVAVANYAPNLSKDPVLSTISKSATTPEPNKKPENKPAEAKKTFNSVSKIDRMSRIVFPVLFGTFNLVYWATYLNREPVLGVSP
T3 sequence (P28472 26-473 partner): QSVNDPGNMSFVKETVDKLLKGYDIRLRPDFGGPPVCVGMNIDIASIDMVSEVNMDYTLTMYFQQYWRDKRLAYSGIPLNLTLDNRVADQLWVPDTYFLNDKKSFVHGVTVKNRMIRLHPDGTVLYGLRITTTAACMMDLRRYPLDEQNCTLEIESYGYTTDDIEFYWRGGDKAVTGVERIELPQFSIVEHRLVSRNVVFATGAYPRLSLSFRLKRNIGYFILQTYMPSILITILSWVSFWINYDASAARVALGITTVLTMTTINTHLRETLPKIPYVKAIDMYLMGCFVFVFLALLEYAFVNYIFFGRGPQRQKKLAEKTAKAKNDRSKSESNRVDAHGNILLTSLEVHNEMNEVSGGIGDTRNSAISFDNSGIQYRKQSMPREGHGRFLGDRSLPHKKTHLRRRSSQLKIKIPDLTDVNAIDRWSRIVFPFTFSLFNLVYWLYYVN
T3 sequence (P18507 40-475): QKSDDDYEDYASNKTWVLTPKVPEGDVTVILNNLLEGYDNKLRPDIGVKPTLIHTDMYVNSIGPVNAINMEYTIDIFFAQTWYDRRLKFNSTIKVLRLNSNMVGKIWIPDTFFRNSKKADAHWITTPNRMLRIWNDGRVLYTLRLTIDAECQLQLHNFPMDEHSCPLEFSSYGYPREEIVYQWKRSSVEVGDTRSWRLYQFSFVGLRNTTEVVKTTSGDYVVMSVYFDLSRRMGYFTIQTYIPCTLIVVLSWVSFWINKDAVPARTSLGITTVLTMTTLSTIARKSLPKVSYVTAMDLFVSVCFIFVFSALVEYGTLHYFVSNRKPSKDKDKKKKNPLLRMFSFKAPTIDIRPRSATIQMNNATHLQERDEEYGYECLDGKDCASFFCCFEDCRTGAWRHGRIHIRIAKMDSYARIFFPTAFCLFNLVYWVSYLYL
T1 sequence (P47869 29-451): as the sequence (P47869 29-451) above
T1 sequence (P28472 26-473 partner): as the sequence (P28472 26-473 partner) above
T1 sequence (P18507 40-475): as the sequence (P18507 40-475) above
T2 sequence (P14867 28-456): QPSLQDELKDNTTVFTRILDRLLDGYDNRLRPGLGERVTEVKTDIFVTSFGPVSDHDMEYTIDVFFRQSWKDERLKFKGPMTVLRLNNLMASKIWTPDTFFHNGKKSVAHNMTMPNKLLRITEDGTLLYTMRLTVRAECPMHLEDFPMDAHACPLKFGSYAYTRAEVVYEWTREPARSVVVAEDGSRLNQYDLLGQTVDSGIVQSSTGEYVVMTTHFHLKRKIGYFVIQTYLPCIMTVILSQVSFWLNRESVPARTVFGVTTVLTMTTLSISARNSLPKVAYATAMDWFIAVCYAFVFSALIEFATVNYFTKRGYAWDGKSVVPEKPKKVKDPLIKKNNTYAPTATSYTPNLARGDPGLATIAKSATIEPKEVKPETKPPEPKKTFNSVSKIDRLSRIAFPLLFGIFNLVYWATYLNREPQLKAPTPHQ
T2 sequence (P47870 25-512 partner limits assumed): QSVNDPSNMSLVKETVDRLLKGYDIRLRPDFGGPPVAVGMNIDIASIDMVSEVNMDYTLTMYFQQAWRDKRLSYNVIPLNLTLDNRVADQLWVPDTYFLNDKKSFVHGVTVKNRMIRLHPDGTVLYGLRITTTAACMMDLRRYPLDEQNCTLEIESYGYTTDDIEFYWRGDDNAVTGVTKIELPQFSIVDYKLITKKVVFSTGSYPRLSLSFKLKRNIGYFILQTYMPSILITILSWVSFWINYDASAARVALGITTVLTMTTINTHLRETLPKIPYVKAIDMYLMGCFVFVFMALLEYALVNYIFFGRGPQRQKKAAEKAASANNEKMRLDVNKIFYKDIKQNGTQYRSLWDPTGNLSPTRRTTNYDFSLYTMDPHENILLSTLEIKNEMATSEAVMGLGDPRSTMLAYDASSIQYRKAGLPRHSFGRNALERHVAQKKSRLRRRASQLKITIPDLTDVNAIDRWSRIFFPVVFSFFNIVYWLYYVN
T2 sequence (P18507 40-475): as the sequence (P18507 40-475) above

Row | SMILES | Ki [1] [nM] | Relative Potentiation for GABAA1 (GABAA receptor α1β2γ2) | Relative Potentiation for GABAA2 (GABAA receptor α2β3γ2)
1 | COc1cccc(F)c1-c1cccc2c(N)c3c(nc12)CN(C1CCCC1)C3=O [9-Amino-2-cyclopentyl-5-(2-fluoro-6-methoxyphenyl)-2,3-dihydropyrrolo[3,4-b]quinolin-1-one] | 3.01 | −0.01 | 0.3
2 | Nc1c2c(nc3c(-c4cncnc4)c(F)ccc13)CN(C1CCC1)C2=O [9-Amino-2-cyclobutyl-6-fluoro-5-pyrimidin-5-yl-2,3-dihydropyrrolo[3,4-b]quinolin-1-one] | 1.46 | −0.053 | 0.09
3 | Nc1c2c(nc3c(-c4ccccc4F)cccc13)CN(C1CCC1)C2=O [Example 124, 9-Amino-2-cyclobutyl-5-(2-fluorophenyl)-2,3-dihydropyrrolo[3,4-b]quinolin-1-one] | 0.945 | −0.016 | 0.14
4 | COc1ccc(CN2Cc3nc4c(-c5cc(C)nn5C)cccc4c(N)c3C2=O)cc1 [9-amino-5-(1,3-dimethyl-1H-pyrazol-5-yl)-2-(4-methoxybenzyl)-2,3-dihydro-1H-pyrrolo[3,4-b]quinolin-1-one] | 10.3 | 0.45 | 0.64
5 | CCN1Cc2nc3c(-c4cc(OC)ccc4F)c(F)ccc3c(N)c2C1=O [9-Amino-2-ethyl-6-fluoro-5-(2-fluoro-5-methoxyphenyl)-2,3-dihydropyrrolo[3,4-b]quinolin-1-one] | 1.4 | 0.005 | 0.17
6 | COc1cncc(-c2cccc3c(N)c4c(nc23)CN(C2CCC2)C4=O)c1 [9-Amino-2-cyclobutyl-5-(5-methoxy-pyridin-3-yl)-2,3-dihydropyrrolo[3,4-b]quinolin-1-one] | 1.86 | 0.038 | 0.26
7 | Nc1c2c(nc3c(-c4cnccn4)cccc13)CN(C1CCC1)C2=O [9-Amino-2-cyclobutyl-5-pyrazin-2-yl-2,3-dihydropyrrolo[3,4-b]quinolin-1-one] | 11.3 | −0.066 | 0.11
8 | COc1ccccc1-c1cccc2c(N)c3c(nc12)CN(C1CCC1)C3=O [Example 63, 9-Amino-2-cyclobutyl-5-(2-methoxyphenyl)-2,3-dihydropyrrolo[3,4-b]quinolin-1-one] | 3.52 | 0.038 | 0.25
9 | COc1cc(F)ccc1-c1cccc2c(N)c3c(nc12)CN(C1CCC1)C3=O [9-Amino-2-cyclobutyl-5-(4-fluoro-2-methoxyphenyl)-2,3-dihydropyrrolo[3,4-b]quinolin-1-one] | 8.36 | 0.035 | 0.26
10 | COc1cnccc1-c1cccc2c(N)c3c(nc12)CN(C1CCC1)C3=O [9-Amino-2-cyclobutyl-5-(3-methoxypyridin-4-yl)-2,3-dihydropyrrolo[3,4-b]quinolin-1-one] | 0.64 | 0.1 | 0.32
11 | COc1cccc(-c2c(F)ccc3c(N)c4c(nc23)CN(C2CCC2)C4=O)c1F [9-Amino-2-cyclobutyl-6-fluoro-5-(2-fluoro-3-methoxyphenyl)-2,3-dihydropyrrolo[3,4-b]quinolin-1-one] | 0.122 | 0.028 | 0.18
12 | Cc1cccc(-c2cccc3c(N)c4c(nc23)C(O)N(C2CCC2)C4=O)n1 (stereo not drawn) [9-Amino-2-cyclobutyl-3-hydroxy-5-(6-methylpyridin-2-yl)-2,3-dihydropyrrolo[3,4-b]quinolin-1-one] | 7.62 | −0.052 | 0.1
13 | CCCN1Cc2nc3c(-c4c(F)cccc4OC)cccc3c(N)c2C1=O [Example 5, 9-Amino-5-(2-fluoro-6-methoxyphenyl)-2-propyl-2,3-dihydropyrrolo[3,4-b]quinolin-1-one] | 5.03 | 0.11 | 0.3
